Square brackets hold non-standard residues; d marks the D form. Peptide text beside a SMILES is read from it. pGlu = O=C1CC[C@@H](C(=O)O)N1
Key:
[1] = tested on: spleen cells of mice; assay: Plaqueforming Cell Assay (PFC test), in vitro immunization with sheep erythrocytes; type: cell-based; settings: for Plaques/10^6 cells: added daily, 5 days, control 768
Description: (§1) The nonapeptide of the invention was tested in the Plaqueforming Cell Assay (PFC test) and in the phythemagglutinin stimulation test (PHA test) for its lymphocyte-stimulative action.
In the PFC test, cell cultures of freshly dissected spleens of mice (2×10^7 spleen cells per ml) were prepared in RPMI 1640 and 30 μl of fetal calf serum (FCS) per ml of cell culture. In vitro immunization is carried out with 5×10^7 sheep erythrocytes/ml. The test cell cultures are incubated daily with the corresponding dose of the test substance. After a test period of 5 days, the cells are centrifuged off, washed with RPMI 1640 medium, and the direct PCF test is carried out as follows: The cells are mixed in an agarose solution with a 10% sheep erythrocyte suspension, and poured onto a plane surface. In the gel layer so formed the stimulated lymphocytes set free antibodies in the subsequent incubation which diffuse in the environment and adhere to the sheep erythrocytes present in these places. After addition of guinea pig complement the red blood cells lyse. Light-colored, circular spots are formed in the reddish-brown gel, which can be discerned with a naked eye, and which are the hemolysis halos of the plaques. In the center of such hemoylsis halos there is an antibody-producing cell. The number of lymphoid cells which form specific immunoglobulins can therefore be equalized with the plaque values found.

[2] = tested on: lymphocytes; assay: phythemagglutinin stimulation test (PHA test), 3H-thymidine incorporation; type: cell-based; settings: for Stimulation index SI / Incorporation of 3H-thymidine: 20 μg PHA/ml, 72 hours; for Incorporation of 3H-thymidine: control 114 311
Description: as §1
The PHA test allows conclusions on the amount of mature, that is, stimulable, lymphocytes by means of the function test on stimulability with the phytolectin PHA. The lectin, like bacterial or viral antigens, incites the lymphocytes to a blast transformation. It causesd proliferation either directly or by induction of lymphokine secretion.
The incorporation of radioactive thymidine within a defined period of time is then the measure for the number of stimulated cells. The mature or immunologically potent T cells only are stimulated. Thus, the influence of a substance on the maturation of lymphocytes can be observed by means of this test. However, stimulation must remain below the optimum; for, at a higher concentration other subpopulations of lymphocytes are stimulated, too, and the effect cannot be observed any longer. The peptide of the invention was added to the culture medium in varying concentrations.

[3] = toxic effects on administration (general statement)

For C[C@@H](O)[C@H](NC(=O)[C@H](CO)NC(=O)[C@H](CO)NC(=O)[C@H](CO)NC(=O)[C@H](CC(=O)O)NC(=O)[C@@H]1CCC(=O)N1)C(=O)NCC(=O)N[C@@H](Cc1c[nH]c2ccccc12)C(=O)N[C@@H](CC(N)=O)C(=O)O [nonapeptide, L-pyroglutamyl-L-aspartyl-L-seryl-L-seryl-L-seryl-L-threonyl-glycyl-L-tryptophyl-L-asparagine] ([pGlu]DSSSTGWN-OH), the “Plaques/10^6 cells” value ([1]; 1 ng/ml nonapeptide) was 908 Plaques/10^6 cells, the “Plaques/10^6 cells” value ([1]; 10 ng/ml nonapeptide) was 1112 Plaques/10^6 cells and the “Plaques/10^6 cells” value ([1]; 100 ng/ml nonapeptide) was 1024 Plaques/10^6 cells. The “Plaques/10^6 cells” value ([1]; 1 μg/ml nonapeptide) was 817 Plaques/10^6 cells, the “Plaques/10^6 cells” value ([1]; 5 μg/ml nonapeptide) was 802 Plaques/10^6 cells and the “stimulation of the lymphocytes depending on the dose” value ([1]; PFC test, in words) was “bell-shaped curve”. For the same compound, the “Stimulation index SI” value ([2]; 0.0125 μg/ml nonapeptide) was 0.89, the “Incorporation of 3H-thymidine” value ([2]; 0.0125 μg/ml nonapeptide) was 101 594 cpm and the “Stimulation index SI” value ([2]; 0.125 μg/ml nonapeptide) was 1.20. The “Incorporation of 3H-thymidine” value ([2]; 0.125 μg/ml nonapeptide) was 137 519 cpm, the “Stimulation index SI” value ([2]; 0.5 μg/ml nonapeptide) was 1.26 and the “Incorporation of 3H-thymidine” value ([2]; 0.5 μg/ml nonapeptide) was 143 831 cpm. The “Stimulation index SI” value ([2]; 1.0 μg/ml nonapeptide) was 1.00, the “Incorporation of 3H-thymidine” value ([2]; 1.0 μg/ml nonapeptide) was 113 978 cpm and the “Stimulation index SI” value ([2]; 5.0 μg/ml nonapeptide) was 0.94. The “Incorporation of 3H-thymidine” value ([2]; 5.0 μg/ml nonapeptide) was 107 670 cpm, the “stimulation of the lymphocytes depending on the dose” value ([2]; PHA test, in words) was “bell-shaped curve” and the toxic effects [3] was “toxic effects have not been observed hitherto”.

From patent publication US4478828A, “Nonapeptide having immunostimulative activity, process for the preparation thereof, and its use” (Hoechst Aktiengesellschaft, priority 1982, dated 1984)
